Values of other authors in patent US7402323B2, “Compositions and methods for treating skin conditions” (AkPharma, Inc., priority 2002, dated 2008).

Assays:
stratum corneum = details: normal thickness 14 cells
[1] = system: cultured neurons and astrocytes; details: compared with control cultures or with cultures supplemented with calcium or glycerophosphate alone

SMILES	stratum corneum thickness after treatment (stratum corneum) [cells]	solubility in water	number of cells in supplemented cultures [1]
CC1=C(/C=C/C(C)=C/C=C/C(C)=C/C(=O)O)C(C)(C)CCC1 [Retinoic acid]	5		
O=P([O-])([O-])OCC(O)CO.[Ca+2] (stereo not drawn) [calcium glycerophosphate, 1,2,3-propanetriol, mono(dihydrogen phosphate) calcium salt (1:1)]		highly soluble	more cells
